For eleven molecules, half-life results are on record in patent US9682938B2, “Pyrazolone derivatives as nitroxyl donors” (Cardioxyl Pharmaceuticals, Inc., priority 2014, dated 2017).

Each structure is given as a SMILES string. A value given as a limit tells only on which side of the number the result lay.

Assay type in all cases: in vitro ADME
A short description of series [1]: In vitro plasma stability, rat plasma. The note with it: male, pH 7.4, 5 μM, 37° C., sampling 0-360 minutes, read-out: T1/2 Rat. The procedure, abridged: (§1)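 Pooled plasma at pH 7.4 with sodium heparin or citrate anticoagulant; compound at 5 μM, 37° C with shaking, triplicate samples at 0–360 min. Quenched in acetonitrile/1% formic acid with internal standard; LC-MS/MS peak-area ratios without standard curve; T1/2 from percent remaining.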

Series [2] is described as follows: In vitro plasma stability, human plasma. The note with it: male, pH 7.4, 5 μM, 37° C., sampling 0-360 minutes, read-out: T1/2 Human. The method, boiled down: as §1
Series [3] is described as follows: In vitro plasma stability, dog plasma. The note with it: male, pH 7.4, 5 μM, 37° C., sampling 0-360 minutes, read-out: T1/2 Dog. The method, boiled down:
as §1

As to `C/C(=N\OC(C)(C)C)C1(NO)C(=O)N(C)N=C1C(C)(C)C` (stereo not drawn) [Compound 117, 4-[1-[(tert-Butoxy)imino]ethyl]-3-tert-butyl-4-(hydroxyamino)-1-methyl-4,5-dihydro-1H-pyrazol-5-one], the half-life at 5 μM in series [1] turned out to be 36 min; in series [2], 16 min; in series [3] it was 34 min.

As for `CC1=NN(C)C(=O)C1(NO)c1noc(-c2ccccc2)n1` (stereo not drawn) [Compound 132, 4-(Hydroxyamino)-1,3-dimethyl-4-(5-phenyl-1,2,4-oxadiazol-3-yl)-4,5-dihydro-1H-pyrazol-5-one], the half-life at 5 μM in series [1], in series [2] and in series [3] was less than 1 min in each case.

Take `CC1=NN(C(C)C)C(=O)C1(NO)c1ccccc1` (stereo not drawn) [Compound 30, 4-(hydroxyamino)-1-isopropyl-3-methyl-4-phenyl-1H-pyrazol-5(4H)-one]: the half-life at 5 μM in series [1] was determined as 32 min; in series [2], 22 min; in series [3], 84 min.

In the case of `CCOC1=NN(c2ccc(Br)cc2)C(=O)C1(NO)/C(C)=N/OC` (stereo not drawn) [Compound 111, 1-(4-Bromophenyl)-3-ethoxy-4-(hydroxyamino)-4-[1-(methoxyimino)ethyl]-4,5-dihydro-1H-pyrazol-5-one], the results for the half-life at 5 μM in series [1], in series [2] and in series [3] were 23 min, 29 min and 24 min, respectively.

As for `CO/N=C(\C)C1(NO)C(=O)N(C)N=C1C(C)(C)C` (stereo not drawn) [Compound 10, 5-(tert-butyl)-4-(hydroxyamino)-4-(1-(methoxyimino)ethyl)-2-methyl-2,4-dihydro-3H-pyrazol-3-one], the half-life at 5 μM in series [1] was 21 min; in series [2], 12 min; in series [3] it was 40 min.

For `CN1N=C(c2ccc([S+]([O-])C(F)(F)F)cc2)C(C)(NO)C1=O` (stereo not drawn) [Compound 35, 4-(hydroxyamino)-2,4-dimethyl-5-(4-((trifluoromethyl)sulfinyl)phenyl)-2,4-dihydro-3H-pyrazol-3-one], the half-life at 5 μM in series [1] was 79 min; in series [2] it was 76 min; in series [3], 44 min.

For the molecule `COCCN(C)S(=O)(=O)c1ccc(C2=NN(C)C(=O)C2(C)NO)cc1` (stereo not drawn) [Compound 90, 4-[4-(Hydroxyamino)-1,4-dimethyl-5-oxo-4,5-dihydro-1H-pyrazol-3-yl]-N-(2-methoxyethyl)-N-methylbenzene-1-sulfonamide], the half-life at 5 μM in series [1] was 72 min; in series [2], 49 min; in series [3] it was 37 min.

For the molecule `CN1N=C(c2ccc(S(C)(=O)=O)c(Cl)c2)C(C)(NO)C1=O` (stereo not drawn) [Compound 70, 3-(3-Chloro-4-methanesulfonylphenyl)-4-(hydroxyamino)-1,4-dimethyl-4,5-dihydro-1H-pyrazol-5-one], the half-life at 5 μM was 43 min in series [1], 31 min in series [2] and 27 min in series [3].

Turning to `CN1N=C(c2ccc(C(=O)O)cc2)C(C)(NO)C1=O` (stereo not drawn) [Compound 74, 4-[4-(Hydroxyamino)-1,4-dimethyl-5-oxo-4,5-dihydro-1H-pyrazol-3-yl]benzoic acid], the half-life at 5 μM amounted to 243 min in series [1], 183 min in series [2] and 175 min in series [3].

Take `CC(C)N1N=C(c2ccc(S(C)(=O)=O)cc2)C(C)(NO)C1=O` (stereo not drawn) [Compound 32, 4-(hydroxyamino)-2-iso-propyl-4-methyl-5-(4-(methylsulfonyl)phenyl)-2,4-dihydro-3H-pyrazol-3-one]: the half-life at 5 μM in series [1] came out at 64 min; in series [2] it was 100 min; in series [3] it was 148 min.

`CN1N=C(c2ccc(C(N)=O)cc2)C(C)(NO)C1=O` (stereo not drawn) [Compound 92, 4-[4-(Hydroxyamino)-1,4-dimethyl-5-oxo-4,5-dihydro-1H-pyrazol-3-yl]benzamide]: the half-life at 5 μM in series [1] is 270 min; in series [2] it was 169 min; in series [3], 166 min.
